Patent US20160237059A1, “HETEROCYCLIC SUBSTITUTED TRIFLUOROMETHYL PYRIMIDINONES AND THEIR USE” (BAYER PHARMA AKTIENGESELLSCHAFT, priority 2013, published 2016)

Columns and labels:
Format in all cases: cell-based
murine CCR2 [1] = biological target: T1, murine CCR2 (Mus musculus, UniProt P51683); assay: Functional β-arrestin recruiting test with human MCP-1 (B-2a); conditions: U2OS β-arrestin cell line transfected with murine CCR2; agonist human MCP-1 at EC50 (about 3 nM); in some cases means of several determinations
T1 construct: host or cells: U2OS β-arrestin cell line
T1 sequence (P51683 whole entry): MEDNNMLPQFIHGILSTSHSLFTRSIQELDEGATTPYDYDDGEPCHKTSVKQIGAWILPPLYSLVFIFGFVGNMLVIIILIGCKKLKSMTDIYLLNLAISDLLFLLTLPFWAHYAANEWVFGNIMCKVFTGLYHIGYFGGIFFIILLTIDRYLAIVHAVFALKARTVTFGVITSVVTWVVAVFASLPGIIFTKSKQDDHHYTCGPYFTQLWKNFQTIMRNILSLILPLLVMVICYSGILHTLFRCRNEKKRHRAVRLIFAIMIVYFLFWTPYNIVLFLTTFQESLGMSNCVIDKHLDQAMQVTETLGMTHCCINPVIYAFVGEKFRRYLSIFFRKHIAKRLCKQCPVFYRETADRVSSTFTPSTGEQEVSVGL
Method: The antagonistic action of test substances on CCR2 was determined in a β-arrestin test. The PathHunter β-arrestin GPCR test system (DiscoveRx Corporation, Ltd.) is a cell-based functional method for detecting binding of β-arrestin to an activated receptor. The molecular basis is a […] complementation measured by the enzymatic conversion of a chemiluminescent substrate. The test cell used was a U2OS β-arrestin cell line transfected with murine CCR2 (93-0543C3, DiscoveRx Corporation, Ltd.).
The test substances were dissolved in dimethyl sulphoxide (DMSO) at a concentration of 10 mM and serially diluted with DMSO in steps of 1:3.16 for a 10-point dose/activity analysis. According to the desired test concentrations, the substances were pre-diluted in Tyrode with 2 mM CaCl2 and 0.05% BSA.
The cells, cultivated in MEM Eagle (supplemented with 10% FCS, 50 U/ml of penicillin, 50 μg/ml of streptomycin, 250 μg/ml of hygromycin and 500 μg/ml of geniticin), were sown at 2000 cells/25 μl in 384 well, μCLEAR/black cell culture plates from Greiner (#781092) and incubated at 37° C. for 24 h. The sowing medium consisted of Opti-MEM (supplemented with 1% FCS, 50 U/ml of penicillin and 50 μg/ml of streptomycin). The cells were pre-incubated for 10 min with 10 μl of the test substances diluted in buffer, and 10 μl of agonist solution [human MCP-1 (PeproTech, #300-04) in Tyrode with 0.05% BSA) were then added. The human MCP-1 was employed at the concentration which corresponds to the EC50 which had been determined in a preliminary test (usually about 3 nM). After 90 min of incubation at 37° C., the solution was removed, and recruitment of β-arrestin to CCR2 was detected with the aid of the PathHunter detection reagent (93-001, DiscoveRx Corporation, Ltd.) according to the instructions of the manufacturer. Luminescence was measured after an incubation time of 60 min using a proprietary luminescence imaging measuring instrument. The molar concentration of the test substance which caused 50% inhibition of the MCP-1 effect (IC50) was determined using a 4-parameter logistic function (Hill function).

human CCR2 = biological target: T2, human CCR2 (Homo sapiens, UniProt P41597); assay: Functional Ca2+ release test (B-1); conditions: Chem-1 cell line transfected with human CCR2; 50% inhibition of the MCP-1 effect, MCP-1 at EC50 (about 5 nM); in some cases means of several determinations
T2 construct: host or cells: Chem-1 cell line
T2 sequence (P41597 1-360 isoform P41597-2): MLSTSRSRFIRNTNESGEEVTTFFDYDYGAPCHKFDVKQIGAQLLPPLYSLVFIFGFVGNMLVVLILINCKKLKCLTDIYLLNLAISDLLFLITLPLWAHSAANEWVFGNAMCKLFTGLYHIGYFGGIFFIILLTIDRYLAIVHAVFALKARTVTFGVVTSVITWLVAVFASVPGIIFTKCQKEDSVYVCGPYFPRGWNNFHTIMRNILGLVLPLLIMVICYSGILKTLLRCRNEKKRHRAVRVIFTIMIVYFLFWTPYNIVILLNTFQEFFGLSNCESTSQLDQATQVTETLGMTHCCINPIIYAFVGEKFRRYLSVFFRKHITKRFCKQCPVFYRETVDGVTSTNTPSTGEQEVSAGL
How it was run: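 Inhibition of MCP-1-evoked Ca2+ release was measured over 120 s by fluorescence imaging in Fluo-4-loaded, human CCR2-transfected Chem-1 cells. Compounds, tested in 10-point 1:3.16 series, were added 10 min before agonist at its EC50 (typically about 5 nM). IC50 values were obtained by 4-parameter logistic fitting.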

murine CCR2 [2] = biological target: T1, murine CCR2; assay: Functional β-arrestin recruiting test with murine MCP-1 (B-2b); conditions: U2OS β-arrestin cell line transfected with murine CCR2; agonist murine MCP-1; in some cases means of several determinations
How it was run: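 In a PathHunter β-galactosidase complementation assay, U2OS cells expressing murine CCR2 were preincubated 10 min with compound (10-point, 1:3.16 dilutions), then challenged with murine MCP-1 at its predetermined EC50 for 90 min at 37 °C. Luminescence was read after 60 min, and IC50 was fitted with a 4-parameter Hill function.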

Compound | IC50 (murine CCR2 [1]) [µM] | IC50 (human CCR2) [µM] | IC50 (murine CCR2 [2]) [µM]
5-(3,4-dichlorobenzyl-2-(2-methoxypyridin-3-yl)-6-(trifluoromethyl)pyrimidin-4(3H)-one [Example 41] | 0.41 | 0.0048 | –
O=c1[nH]c(-c2ncc(C(F)(F)F)cc2Cl)nc(C(F)(F)F)c1Oc1ccc(Cl)c(Cl)c1 [Example 6, 2-[3-chloro-5-(trifluoromethyl)pyridin-2-yl]-5-(3,4-dichlorophenoxy)-6-(trifluoromethyl)pyrimidin-4(3H)-one] | 0.15 | 0.0048 | –
Cc1cccc(-c2nc(C(F)(F)F)c(Oc3ccc(Cl)c(Cl)c3)c(=O)[nH]2)n1 [Example 9, 5-(3,4-dichlorophenoxy)-2-(6-methylpyridin-2-yl)-6-(trifluoromethyl)pyrimidin-4(3H)-one] | 0.18 | 0.013 | –
O=c1[nH]c(-c2cccc(Cl)n2)nc(C(F)(F)F)c1Oc1ccc(Cl)c(Cl)c1 [Example 10, 2-(6-chloropyridin-2-yl)-5-(3,4-dichlorophenoxy)-6-(trifluoromethyl)pyrimidin-4(3H)-one] | 0.14 | 0.015 | –
O=c1[nH]c(-c2ncccc2Cl)nc(C(F)(F)F)c1Oc1cccc(Cl)c1 [Example 12, 5-(3-chlorophenoxy)-2-(3-chloropyridin-2-yl)-6-(trifluoromethyl)pyrimidin-4(3H)-one] | 0.1 | 0.075 | –
O=c1[nH]c(-c2ncccc2Cl)nc(C(F)(F)F)c1Oc1ccc(F)c(F)c1 [Example 13, 2-(3-chloropyridin-2-yl)-5-(3,4-difluorophenoxy)-6-(trifluoromethyl)pyrimidin-4(3H)-one] | 0.12 | 0.056 | –
O=c1[nH]c(-c2ncc(F)cc2F)nc(C(F)(F)F)c1Cc1ccc(Cl)c(Cl)c1 [Example 18, 5-(3,4-dichlorobenzyl)-2-(3,5-difluoropyridin-2-yl)-6-(trifluoromethyl)pyrimidin-4(3H)-one] | 0.14 | 0.014 | –
O=c1[nH]c(-n2cnc(Cl)n2)nc(C(F)(F)F)c1Oc1ccc(Cl)c(Cl)c1 [Example 247] | – | 0.123 | 5.53
CC(C)Oc1cnn(-c2nc(C(F)(F)F)c(Oc3ccc(Cl)c(Cl)c3)c(=O)[nH]2)c1 [Example 250] | – | 0.0041 | 0.942
CC(C)(C)c1nncn1-c1nc(C(F)(F)F)c(Oc2ccc(Cl)c(Cl)c2)c(=O)[nH]1 [Example 251] | – | 0.076 | 6.76
O=c1[nH]c(-n2ccc(C(F)(F)F)n2)nc(C(F)(F)F)c1Oc1ccc(Cl)c(Cl)c1 [Example 252] | – | 0.113 | 6.94
O=c1[nH]c(-n2cc(C(F)(F)F)cn2)nc(C(F)(F)F)c1Oc1ccc(Cl)c(Cl)c1 [Example 253] | – | 0.24 | 4.23
COc1nc(N)n(-c2nc(C(F)(F)F)c(Oc3ccc(Cl)c(Cl)c3)c(=O)[nH]2)n1 [Example 254] | – | 0.015 | 0.613
O=c1[nH]c(-n2cncn2)nc(C(F)(F)F)c1Oc1ccc(Cl)c(Cl)c1 [Example 255, 5-(3,4-Dichlorophenoxy)-2-(1H-1,2,4-triazol-1-yl)-6-(trifluoromethyl)pyrimidin-4(3H)-one] | – | 0.038 | 1.34
O=c1[nH]c(-n2ncc3ncccc32)nc(C(F)(F)F)c1Oc1ccc(Cl)c(Cl)c1 [Example 258] | – | 0.0099 | 0.949
O=c1[nH]c(C2CCNCC2)nc(C(F)(F)F)c1Oc1ccc(Cl)c(C(F)(F)F)c1 [Example 259, 5-[4-chloro-3-(trifluoromethyl)phenoxy]-2-(piperidin-4-yl)-6-(trifluoromethyl)pyrimidin-4(3H)-one] | – | 0.624 | 3.53
C[S+]([O-])c1cccnc1-c1nc(C(F)(F)F)c(Oc2ccc(Cl)c(C(F)(F)F)c2)c(=O)[nH]1 (stereo not shown) [Example 265] | – | 0.012 | 0.257
C[S+]([O-])c1cccnc1-c1nc(C(F)(F)F)c(Oc2ccc(Cl)c(Cl)c2)c(=O)[nH]1 (stereo not shown) [Example 267, 5-(3,4-Dichlorophenoxy)-2-[3-(methylsulphinyl)pyridin-2-yl]-6-(trifluoromethyl)pyrimidin-4(3H)-one] | – | 0.103 | 0.679
CS(=O)(=O)c1cccnc1-c1nc(C(F)(F)F)c(Oc2ccc(Cl)c(Cl)c2)c(=O)[nH]1 [Example 268, 5-(3,4-Dichlorophenoxy)-2-[3-(methylsulphonyl)pyridin-2-yl]-6-(trifluoromethyl)pyrimidin-4(3H)-one] | – | 0.0058 | 0.484

Stronger by IC50 (human CCR2), values ahead:

IC50 (murine CCR2 [1]) [µM] | IC50 (human CCR2) [µM] | IC50 (murine CCR2 [2]) [µM] | Compound
0.11 | 0.0035 | – | O=c1[nH]c(-c2ccccn2)nc(C(F)(F)F)c1Cc1ccc(Cl)c(Cl)c1 [Example 1, 5-(3,4-Dichlorobenzyl)-2-(pyridin-2-yl)-6-(trifluoromethyl)pyrimidin-4(3H)-one]
0.18 | 0.0039 | – | O=c1[nH]c(-c2ccc(Cl)cn2)nc(C(F)(F)F)c1Oc1ccc(Cl)c(Cl)c1 [Example 8, 2-(5-chloropyridin-2-yl)-5-(3,4-dichlorophenoxy)-6-(trifluoromethyl)pyrimidin-4(3H)-one]
– | 0.0009 | 0.039 | COc1csnc1-c1nc(C(F)(F)F)c(Oc2ccc(Cl)c(C(F)(F)F)c2)c(=O)[nH]1 [Example 238]
– | 0.0026 | 0.089 | O=c1[nH]c(-c2nscc2O)nc(C(F)(F)F)c1Oc1ccc(Cl)c(C(F)(F)F)c1 [Example 239]
– | 0.0005 | 0.107 | CCn1ccc(-c2nc(C(F)(F)F)c(Oc3ccc(Cl)c(C(F)(F)F)c3)c(=O)[nH]2)n1 [Example 240]
– | 0.0008 | 0.076 | Cc1cnc(-c2nc(C(F)(F)F)c(Oc3ccc(Cl)c(Cl)c3)c(=O)[nH]2)[nH]1 [Example 241]
– | 0.0018 | 0.153 | Cc1cnc(-c2nc(C(F)(F)F)c(Oc3ccc(Cl)c(C(F)(F)F)c3)c(=O)[nH]2)[nH]1 [Example 242]
– | 0.0022 | 1.23 | CSc1cnn(-c2nc(C(F)(F)F)c(Oc3ccc(Cl)c(Cl)c3)c(=O)[nH]2)c1 [Example 248]
– | 0.0009 | 0.254 | COc1cnn(-c2nc(C(F)(F)F)c(Oc3ccc(Cl)c(Cl)c3)c(=O)[nH]2)c1 [Example 249]
– | 0.0008 | 0.1 | Nc1ccn(-c2nc(C(F)(F)F)c(Oc3ccc(Cl)c(Cl)c3)c(=O)[nH]2)n1 [Example 256, 2-(3-Amino-1H-pyrazol-1-yl)-5-(3,4-dichlorophenoxy)-6-(trifluoromethyl)pyrimidin-4(3H)-one]
– | 0.0028 | 0.276 | Nc1cnc2cnn(-c3nc(C(F)(F)F)c(Oc4ccc(Cl)c(Cl)c4)c(=O)[nH]3)c2c1 [Example 257]
– | 0.0004 | 0.053 | COc1cn(C)nc1-c1nc(C(F)(F)F)c(Oc2ccc(Cl)c(C(F)(F)F)c2)c(=O)[nH]1 [Example 264, 5-[4-Chloro-3-(trifluoromethyl)phenoxy]-2-(4-methoxy-1-methyl-1H-pyrazol-3-yl)-6-(trifluoromethyl)pyrimidin-4(3H)-one]
– | 0.0018 | 0.196 | CS(=O)(=O)c1cccnc1-c1nc(C(F)(F)F)c(Oc2ccc(Cl)c(C(F)(F)F)c2)c(=O)[nH]1 [Example 266, 5-[4-Chloro-3-(trifluoromethyl)phenoxy]-2-[3-(methylsulphonyl)pyridin-2-yl]-6-(trifluoromethyl)pyrimidin-4(3H)-one]
